Measurements: PubChem BioAssay AID1918940 (Molecular Pharmacology Branch, DTP, NCI, 2023)
pIC50: −log10 of the molar value.

System: NCI-H211 complex spheroid viability
Test: Anticancer human tumor NCI-H211 cell line growth inhibition [LSD1];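 further: luminescent viability read after seven days of drug exposure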;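 on viability, T/C: 100% = DMSO vehicle control viability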
Settings: for pIC50: curve of first compound; for viability, T/C: stronger effect = lower value
Summary of the method: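 Multicellular complex spheroids of tumor cells with human endothelial cells (HUVEC) and mesenchymal stem cells; the LSD1 inhibitor iadademstat was combined with standard-of-care or investigational agents. Top concentration at or near clinical Cmax, half-log dilutions; final DMSO ≤0.25%.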

[1] = second compound 0.1 µM, first compound 0.000949 µM
[2] = second compound 0.1 µM, first compound 0.003 µM
[3] = second compound 0.1 µM, first compound 0.00949 µM
[4] = second compound 0.1 µM, first compound 0.03 µM
[5] = second compound 0.1 µM, first compound 0.0949 µM
[6] = second compound 0.1 µM, first compound 0.3 µM
[7] = second compound 0.316 µM, first compound 0.000949 µM
[8] = second compound 0.316 µM, first compound 0.003 µM
[9] = second compound 0.316 µM, first compound 0.00949 µM
[10] = second compound 0.316 µM, first compound 0.03 µM
[11] = second compound 0.316 µM, first compound 0.0949 µM
[12] = second compound 0.316 µM, first compound 0.3 µM
[13] = second compound 1 µM, first compound 0.000949 µM
[14] = second compound 1 µM, first compound 0.003 µM
[15] = second compound 1 µM, first compound 0.00949 µM
[16] = second compound 1 µM, first compound 0.03 µM
[17] = second compound 1 µM, first compound 0.0949 µM
[18] = second compound 1 µM, first compound 0.3 µM
[19] = second compound 3.16 µM, first compound 0.000949 µM
[20] = second compound 3.16 µM, first compound 0.003 µM
[21] = second compound 3.16 µM, first compound 0.00949 µM
[22] = second compound 3.16 µM, first compound 0.03 µM
[23] = second compound 3.16 µM, first compound 0.0949 µM
[24] = second compound 3.16 µM, first compound 0.3 µM
[25] = second compound 10 µM, first compound 0.000949 µM
[26] = second compound 10 µM, first compound 0.003 µM
[27] = second compound 10 µM, first compound 0.00949 µM
[28] = second compound 10 µM, first compound 0.03 µM
[29] = second compound 10 µM, first compound 0.0949 µM
[30] = second compound 10 µM, first compound 0.3 µM

CC[C@@]1(O)C(=O)OCc2c1cc1n(c2=O)Cc2cc3c(CN(C)C)c(O)ccc3nc2-1 + NC1CCC(NC2CC2c2ccccc2)CC1
pIC50 (second compound 0.1 µM): 9.47
pIC50 (second compound 0.316 µM): 9.45
pIC50 (second compound 1 µM): 9.48
pIC50 (second compound 3.16 µM): > 9.50
pIC50 (second compound 10 µM): > 9.50
viability, T/C (second compound 0.1 µM, first compound 0.000316 µM): 52.3%
viability, T/C (second compound 0.1 µM, first compound 0.001 µM): 11.6%
viability, T/C (second compound 0.1 µM, first compound 0.00316 µM): 2.63%
viability, T/C (second compound 0.1 µM, first compound 0.01 µM): 7.01%
viability, T/C (second compound 0.1 µM, first compound 0.0316 µM): 1.98%
viability, T/C (second compound 0.1 µM, first compound 0.1 µM): 1.11%
viability, T/C (second compound 0.316 µM, first compound 0.000316 µM): 54.4%
viability, T/C (second compound 0.316 µM, first compound 0.001 µM): 11.1%
viability, T/C (second compound 0.316 µM, first compound 0.00316 µM): 1.88%
viability, T/C (second compound 0.316 µM, first compound 0.01 µM): 2.29%
viability, T/C (second compound 0.316 µM, first compound 0.0316 µM): 2.33%
viability, T/C (second compound 0.316 µM, first compound 0.1 µM): 1.04%
viability, T/C (second compound 1 µM, first compound 0.000316 µM): 51.4%
viability, T/C (second compound 1 µM, first compound 0.001 µM): 10.3%
viability, T/C (second compound 1 µM, first compound 0.00316 µM): 3.14%
viability, T/C (second compound 1 µM, first compound 0.01 µM): 2.71%
viability, T/C (second compound 1 µM, first compound 0.0316 µM): 7%
viability, T/C (second compound 1 µM, first compound 0.1 µM): 1.06%
viability, T/C (second compound 3.16 µM, first compound 0.000316 µM): 49%
viability, T/C (second compound 3.16 µM, first compound 0.001 µM): 9.4%
viability, T/C (second compound 3.16 µM, first compound 0.00316 µM): 2.42%
viability, T/C (second compound 3.16 µM, first compound 0.01 µM): 1.93%
viability, T/C (second compound 3.16 µM, first compound 0.0316 µM): 1.88%
viability, T/C (second compound 3.16 µM, first compound 0.1 µM): 1.01%
viability, T/C (second compound 10 µM, first compound 0.000316 µM): 28.7%
viability, T/C (second compound 10 µM, first compound 0.001 µM): 6.59%
viability, T/C (second compound 10 µM, first compound 0.00316 µM): 1.13%
viability, T/C (second compound 10 µM, first compound 0.01 µM): 1.34%
viability, T/C (second compound 10 µM, first compound 0.0316 µM): 0.81%
viability, T/C (second compound 10 µM, first compound 0.1 µM): 0.51%

CCc1c2c(nc3ccc(O)cc13)-c1cc3c(c(=O)n1C2)COC(=O)[C@]3(O)CC + NC1CCC(NC2CC2c2ccccc2)CC1
pIC50 (second compound 0.1 µM): > 9.02
pIC50 (second compound 0.316 µM): > 9.02
pIC50 (second compound 1 µM): > 9.02
pIC50 (second compound 3.16 µM): > 9.02
pIC50 (second compound 10 µM): > 9.02
viability, T/C [1]: 1.98%
viability, T/C [2]: 3.23%
viability, T/C [3]: 0.6%
viability, T/C [4]: 0.92%
viability, T/C [5]: 0.04%
viability, T/C [6]: 0.14%
viability, T/C [7]: 1.86%
viability, T/C [8]: 0.71%
viability, T/C [9]: 0.57%
viability, T/C [10]: 0.69%
viability, T/C [11]: 0.03%
viability, T/C [12]: 0.27%
viability, T/C [13]: 2.45%
viability, T/C [14]: 1.08%
viability, T/C [15]: 0.51%
viability, T/C [16]: 0.73%
viability, T/C [17]: 0.06%
viability, T/C [18]: 0.61%
viability, T/C [19]: 0.94%
viability, T/C [20]: 0.56%
viability, T/C [21]: 0.41%
viability, T/C [22]: 0.58%
viability, T/C [23]: 0.5%
viability, T/C [24]: 0.13%
viability, T/C [25]: 0.65%
viability, T/C [26]: 0.19%
viability, T/C [27]: 0.2%
viability, T/C [28]: 0.27%
viability, T/C [29]: 0.13%
viability, T/C [30]: 0.19%

Nc1ccn(C2OC(CO)C(O)C2(F)F)c(=O)n1 (stereo not given) + NC1CCC(NC2CC2c2ccccc2)CC1
pIC50 (second compound 0.1 µM): > 9.02
pIC50 (second compound 0.316 µM): > 9.02
pIC50 (second compound 1 µM): > 9.02
pIC50 (second compound 3.16 µM): > 9.02
pIC50 (second compound 10 µM): > 9.02
viability, T/C [1]: 2.51%
viability, T/C [2]: 2.16%
viability, T/C [3]: 2.36%
viability, T/C [4]: 1.86%
viability, T/C [5]: 2.26%
viability, T/C [6]: 2.41%
viability, T/C [7]: 2.59%
viability, T/C [8]: 2.18%
viability, T/C [9]: 2.35%
viability, T/C [10]: 2.12%
viability, T/C [11]: 2.8%
viability, T/C [12]: 2.37%
viability, T/C [13]: 2.5%
viability, T/C [14]: 1.98%
viability, T/C [15]: 2.28%
viability, T/C [16]: 2.01%
viability, T/C [17]: 2.14%
viability, T/C [18]: 2.46%
viability, T/C [19]: 2.06%
viability, T/C [20]: 3.05%
viability, T/C [21]: 2.05%
viability, T/C [22]: 1.95%
viability, T/C [23]: 2.15%
viability, T/C [24]: 2.13%
viability, T/C [25]: 1.03%
viability, T/C [26]: 0.96%
viability, T/C [27]: 1.05%
viability, T/C [28]: 0.79%
viability, T/C [29]: 0.64%
viability, T/C [30]: 1.61%
